Laboratory results from article PMC7617456, “Cryptosporidium lysyl-tRNA synthetase inhibitors define the interplay between solubility and permeability required to achieve efficacy” (Science translational medicine, 2024).
Where two headings read alike, the source gives them in different places.

Columns and labels:
Mouse pharmacokinetics = conditions: for AUC / Vd / half-life / Cmax / Tmax / bioavailability: female, BALB/C, whole blood; for AUC / Vd / half-life / Cmax / Tmax / bioavailability / Clb: mouse; for CLB: mouse IV 3 mg/kg, clearance in blood; for Clb: percent of liver blood flow; for mean free (unbound) drug concentration relative to EC90: uninfected mice, 10 mg/kg oral single dose
Method: Uninfected mice were administered a single oral (10 mg/kg) dose of either DDD489 or DDD508 using the same formulation and dose concentration as for the efficacy study. Blood samples were collected at various time points after drug administration (15, 30, 60, 120, 180, 240, and 480 minutes) and analyzed to produce a concentration-time plot of unbound drug concentration (Fig. 3). […]
Mouse pharmacokinetics (Dundee)
As previously described.(27)
Test compound was dosed as a bolus solution intravenously (IV) at 3mg/kg (dose volume: 5 mL/kg; dose vehicle: 10% DMSO; 40% PEG 400; 50% Milli-Q water) or dosed orally (PO) by gavage as a suspension at 10mg/kg (dose volume: 10 mL/kg; dose vehicle: 1% CMC to female BALB/C mice (n = 3/dose route). Blood samples were taken from each mouse at 5, 15, 30 min, 1, 2, 4, 6, 8 h mixed with nine volumes of Milli-Q water and stored frozen until UPLC/MS/MS analysis. Pharmacokinetic parameters were derived from the blood concentration-time curve using PK solutions software v2.0 (Summit Research Services, USA).

Rat pharmacokinetics = assay type: in vivo; conditions: for half-life / Vd / AUC / Cmax / Tmax / bioavailability: male, Hans Wistar, whole blood; for half-life / Vd: 3 mg/kg, rat, IV; for half-life: read-out: T½ (converted); for Vd: read-out: Vdss; for bioavailability: read-out: F (oral bioavailability); for CLB: rat IV, clearance in blood
Method: Rat pharmacokinetics (Dundee)
As for mice except using male Hans Wistar rats (IV dose volume 1 mL/kg; PO dose volume: […]
Pharmacokinetic parameters were
derived from the blood concentration-time curve using WinNonLin Professional Software v
6.3 (Pharsight Corporation). […]

[1] = NOD SCID Gamma mice at MED 30 mg/kg, first and last days of treatment
Description: Figure S6. Blood concentration time profiles for late lead compounds in infected mice.
Mean free blood concentration time profiles following oral administration of late lead compounds to NOD SCID Gamma (A a n d B ) and IFN-Gamma KO (C and D) mice twice daily for 7 days as described in Fig. 1C and Fig. 4A) respectively. Data are mean ± SD (3 mice per group). Blood samples were collected on the first day (squares) and last day (circles) of compound dosing (Day 7 and 13 PI for NOD SCID Gamma, Day 6 and 13 for IFN-Gamma KO). Total drug concentrations were corrected for fraction unbound (fu) in PPB assay […]
mg/kg) was administered to NOD SCID Gamma mice. (B) DDD508 (10 mg/kg) was administered to NOD SCID Gamma mice. Blood concentrations were scaled to 30 mg/kg for comparison, assuming dose linearity. (C) DDD489 (50 mg/kg) was administered to IFN-Gamma KO mice. (D) DDD508 (50 mg/kg) was administered to IFN-Gamma KO mice.
(1 picture or pasted object on this page, not shown here)

KRS-OE = assay: Transgenic C. parvum NanoLuciferase drug sensitivity assay, KRS-OE; assay type: cell-based; conditions: Cryptosporidium parvum, HCT-8, 48 h, read-out: EC50, KRS-OE
KRS-A309L = assay: Transgenic C. parvum NanoLuciferase drug sensitivity assay, KRS-A309L; assay type: cell-based; conditions: Cryptosporidium parvum, HCT-8, 48 h, read-out: EC50, KRS-A309L
CHIlogD = assay type: physicochemical; conditions: pH 7.4
[2] = Liver microsomal intrinsic clearance, mouse; assay type: in vitro ADME; conditions: mouse liver microsomes
[3] = Hepatocyte intrinsic clearance, rat; assay type: in vitro ADME; conditions: rat hepatocytes
[4] = Plasma protein binding, mouse; assay type: in vitro ADME; conditions: mouse PPB assay, read-out: fraction unbound (fu)
[5] = Plasma protein binding, dog; assay type: in vitro ADME; conditions: read-out: PPB (d) (converted)
CYP450 2D6 = CYP450 2D6 (Homo sapiens, UniProt P10635); assay: CYP450 inhibition 2D6; assay type: in vitro ADME
Method: (§1) CYP450 inhibition (Dundee)
(§2) As previously described.(31)
(§3) DDD489 and DDD508 were evaluated for their ability to induce reverse mutations both in the presence and absence of S9 mix at the histidine locus in the genome of four strains of Salmonella typhimurium (TA98, TA100, TA1535, and TA97a) and at the tryptophan locus in the genome of Escherichia coli WP2 uvrA in a mini-Ames study conducted at WuXi App Tec […]
(§4) hERG inhibition (WuXi App Tec)
(§5) DDD489 and DDD508 were evaluated for their effects on cloned hERG potassium channels stably expressed in Chinese Hamster Ovary (CHO) cells using manual patch-clamp technique in a hERG inhibition assay conducted at WuXi App Tec (Suzhou).
(§6) Mitochondrial toxicity (Cyprotex)
(§7) DDD489 and DDD508 were evaluated for their effects on mitochondrial function in a functional mitochondrial toxicity assay using Seahorse XFe96 flux analyser conducted at […]
(§8) 44 screen safety panel (Eurofins)
(§9) DDD489 was evaluated for off-target effects in a SafetyScreen44 panel at Eurofins Cerep.
(§10) All regulated procedures, at the University of Dundee, on living animals were carried out under the authority of a project license issued by the Home Office under the Animals (Scientific Procedures) Act 1986, as amended in 2012 (and in compliance with EU Directive EU/2010/63). […]

CYP450 3A4 = CYP450 3A4 (Homo sapiens, UniProt P08684); assay: CYP450 inhibition 3A4; assay type: in vitro ADME
Method: as §1, §2, §3, §4, §5, §6, §7, §8, §9, §10

[6] = test system: Salmonella typhimurium (TA98, TA100, TA1535, and TA97a) and Escherichia coli WP2 uvrA; assay: Mini-Ames; assay type: cell-based; conditions: presence and absence of S9 mix
mitochondrial function = assay: Functional mitochondrial toxicity assay (Seahorse XFe96); assay type: cell-based
CpKRS = CpKRS (Cryptosporidium parvum, UniProt Q5CR27); assay: CpKRS in vitro enzyme assay
Method: CpKRS in vitro enzyme assay (Dundee)
Potency of compounds was determined in 10-point dose-response inhibition curves.
Echo 550 acoustic dispenser (Labcyte). KRS reactions were started by adding enzyme into wells containing substrate and compounds using a Thermo Scientiﬁ c Matrix Wellmate. KRS assays were run in 50 µL reactions (Final concentration: 100 mM HEPES*K pH 7.4, 20 mM
Pyrophosphatase) at room temperature for 7 h. Reactions were stopped by the addition of Biomol green (50 µL: Enzo Life Sciences) with the amount of free phosphate detected by
Samples were all run in duplicate and data was processed and analyzed using ActivityBase

[7] = rat IV (DDD489 2.8, DDD508 3.47 mg/kg)
[8] = read-out: Oxygen consumption AC50

CYP450 3A4, sequence (P08684 whole entry): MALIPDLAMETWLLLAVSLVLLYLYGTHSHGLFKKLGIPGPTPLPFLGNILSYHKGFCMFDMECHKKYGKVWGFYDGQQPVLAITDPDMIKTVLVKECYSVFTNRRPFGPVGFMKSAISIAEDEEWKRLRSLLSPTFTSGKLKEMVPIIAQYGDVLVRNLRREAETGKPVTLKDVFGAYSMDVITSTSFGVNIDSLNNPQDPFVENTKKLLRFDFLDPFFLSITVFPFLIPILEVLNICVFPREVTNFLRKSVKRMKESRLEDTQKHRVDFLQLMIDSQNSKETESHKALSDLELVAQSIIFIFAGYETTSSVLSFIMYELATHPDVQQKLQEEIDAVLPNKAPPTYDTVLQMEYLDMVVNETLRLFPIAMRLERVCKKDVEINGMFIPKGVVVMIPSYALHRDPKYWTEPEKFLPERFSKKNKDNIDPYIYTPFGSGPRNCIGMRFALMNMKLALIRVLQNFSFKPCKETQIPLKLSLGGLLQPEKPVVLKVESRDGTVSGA
CpKRS, sequence (Q5CR27 entry or part of it): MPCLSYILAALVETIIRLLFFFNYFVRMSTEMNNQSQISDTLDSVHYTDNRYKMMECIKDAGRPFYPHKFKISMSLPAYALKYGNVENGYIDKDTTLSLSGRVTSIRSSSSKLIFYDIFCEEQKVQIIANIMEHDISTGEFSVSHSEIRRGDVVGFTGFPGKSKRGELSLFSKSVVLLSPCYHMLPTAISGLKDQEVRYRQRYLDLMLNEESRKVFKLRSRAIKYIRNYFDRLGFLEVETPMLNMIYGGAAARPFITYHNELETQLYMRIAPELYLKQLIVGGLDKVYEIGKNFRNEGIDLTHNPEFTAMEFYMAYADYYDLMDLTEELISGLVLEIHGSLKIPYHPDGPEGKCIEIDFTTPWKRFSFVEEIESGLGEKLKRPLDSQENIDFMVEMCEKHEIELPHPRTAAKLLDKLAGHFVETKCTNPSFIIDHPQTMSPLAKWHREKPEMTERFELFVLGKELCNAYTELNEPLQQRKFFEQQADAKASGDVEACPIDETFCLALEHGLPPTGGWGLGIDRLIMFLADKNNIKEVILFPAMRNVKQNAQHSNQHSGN
CYP450 2D6, sequence (P10635 whole entry): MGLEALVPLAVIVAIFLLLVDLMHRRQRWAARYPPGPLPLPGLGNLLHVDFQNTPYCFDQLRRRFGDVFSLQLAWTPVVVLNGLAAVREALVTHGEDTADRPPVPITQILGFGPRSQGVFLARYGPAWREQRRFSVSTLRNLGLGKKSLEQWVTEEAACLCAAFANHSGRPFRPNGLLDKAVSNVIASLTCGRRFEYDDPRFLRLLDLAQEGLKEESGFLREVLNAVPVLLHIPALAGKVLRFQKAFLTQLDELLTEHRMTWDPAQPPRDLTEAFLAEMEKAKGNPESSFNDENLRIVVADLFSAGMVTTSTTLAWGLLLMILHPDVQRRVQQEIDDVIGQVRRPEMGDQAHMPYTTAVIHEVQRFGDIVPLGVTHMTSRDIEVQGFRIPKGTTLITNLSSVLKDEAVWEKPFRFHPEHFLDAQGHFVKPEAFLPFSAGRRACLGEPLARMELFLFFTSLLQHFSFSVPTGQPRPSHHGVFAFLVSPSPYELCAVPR

Structure (SMILES) | AUC (Mouse pharmacokinetics; iv, 3 mg/kg) [ng·h/mL] | Vd (Mouse pharmacokinetics; iv, 3 mg/kg) [L/kg] | half-life (Mouse pharmacokinetics; iv, 3 mg/kg) [h] | AUC (Mouse pharmacokinetics; po, 10 mg/kg) [ng·h/mL] | Cmax (Mouse pharmacokinetics; po, 10 mg/kg) [ng/mL] | Tmax (Mouse pharmacokinetics; po, 10 mg/kg) [h] | bioavailability (Mouse pharmacokinetics; po, 10 mg/kg) [%] | CLB (Mouse pharmacokinetics) [mL/min/kg] | Clb (Mouse pharmacokinetics) [% LBF] | mean free (unbound) drug concentration relative to EC90 (Mouse pharmacokinetics) | half-life (Rat pharmacokinetics) [h] | Vd (Rat pharmacokinetics) [L/kg] | AUC (Rat pharmacokinetics; [7]) [ng·h/mL] | AUC (Rat pharmacokinetics; rat PO 10 mg/kg) [ng·h/mL] | Cmax (Rat pharmacokinetics; rat PO 10 mg/kg) [ng/mL] | Tmax (Rat pharmacokinetics; rat PO 10 mg/kg) [h] | bioavailability (Rat pharmacokinetics; rat PO 10 mg/kg) [%] | CLB (Rat pharmacokinetics) [mL/min/kg] | free blood concentration relative to EC90 [1] | EC50 (KRS-OE) [µM] | further results
Nc1nc2c(c(C(F)(F)F)n1)C(=O)N(CC1CCCC(C(F)(F)F)C1)C2 (stereo not drawn) [DDD489] | 2280 | 2.8 | 1.5 | 517 | 200 | 1 | 7 | 22 | 17 | remained below the EC90 | 1.2 | 3.2 | 1200 | 137 | 30 | 2 | 3.2 | 39 | only above the EC90 for around two hours | 0.978 | EC50 (KRS-A309L): 8.63 µM; chromatographic logD (CHIlogD): 2.8; Mics CLi (m) [2]: 12 mL/min/g; Heps CLi (r) [3]: 1.9 mL/min/g; fraction unbound [4]: 0.16; fraction unbound [5]: 0.3; IC50 (CYP450 2D6): 8 µM; IC50 (CYP450 3A4): > 100 µM; Mini-Ames (4 strains ± S9) [6]: Negative; Extracellular acidification rate AC50 (mitochondrial function): No response; Reserve capacity AC50 (mitochondrial function): No response; AC50 (mitochondrial function; [8]): > 100 µM; IC50 (CpKRS): 0.85 µM
O=C(NCC1(O)CCCCC1)c1cc(=O)c2cc(O)ccc2o1 [DDD508] | 1480 | 1.8 | 0.6 | 267 | 200 | 0.25 | 6 | 34 | 27 | remained below the EC90 | 0.6 | 2.1 | 900 | 367 | 100 | 1 | 14 | 64 | only above the EC90 for around two hours | > 1 | EC50 (KRS-A309L): 9.93 µM; chromatographic logD (CHIlogD): 1; Mics CLi (m) [2]: 1.4 mL/min/g; Heps CLi (r) [3]: 1.1 mL/min/g; fraction unbound [4]: 0.6; fraction unbound [5]: 0.52; IC50 (CYP450 2D6): > 100 µM; IC50 (CYP450 3A4): > 100 µM; Mini-Ames (4 strains ± S9) [6]: Negative; Extracellular acidification rate AC50 (mitochondrial function): No response; AC50 (mitochondrial function; [8]): > 100 µM; AC50 (mitochondrial function; read-out: Reserve capacity AC50): > 100 µM; IC50 (CpKRS): 1.7 µM
